Data from patent US11559510B2, “Isoflavonoid composition with improved pharmacokinetics” (NOXOPHARM LIMITED, priority 2016, dated 2023).
Where two headings read alike, the source gives them in different places.

Assay: Plasma pharmacokinetic studies of idronoxil in rats (rectal in cocoa butter vs intestinal in lipid emulsion)
Assay type: in vivo, Male Sprague-Dawley rats
Conditions: for Peak Area in rat plasma, Rat 2 / Peak Area in rat plasma, Rat 1 / Peak Area in rat plasma, Rat 3 / half-life / concentration at 0 h / concentration at 1 h / concentration at 2 h / concentration at 3 h / concentration at 4 h / concentration at 5 h / concentration at 6 h / concentration at 7 h / concentration at 8 h: 10 mg/kg; for half-life / concentration at 0 h / concentration at 1 h / concentration at 2 h / concentration at 3 h / concentration at 4 h / concentration at 5 h / concentration at 6 h / concentration at 7 h / concentration at 8 h: male, Sprague-Dawley, rat, plasma
Procedure: The objective of this study in rodents is to determine the plasma pharmacokinetics of idronoxil after rectal delivery and intestinal delivery in lipids (cocoa butter or emulsion).
Part (1); n=3 rats: Rectal administration of idronoxil in cocoa butter liquid formulation, collection of plasma.
Part (2); n=3 rats: Intestinal administration (intraduodenal infusion) of idronoxil in lipid formulation, collection of plasma.
3 mg idronoxil per rat (equivalent to 10 mg/kg idronoxil).
Preparation of lipid formulation for intestinal dosing: Briefly, 3 mg of idronoxil, 80 mg oleic acid and 50 mg Tween 80 were mixed in a glass vial as the lipid phase. An aqueous phase consisting of 5.6 mL phosphate buffered saline (PBS, pH 7.4) was subsequently added to the lipid phase and the formulation emulsified by ultrasonication with a Misonix XL 2020 ultrasonic processor equipped with a 3.2-mm microprobe tip running at an amplitude of 240 μm and a frequency of 20 kHz for 4 min at room temperature.
Dose administration: The lipid formulations were infused into the duodenum of the rats at 2.8 mL/h for 2 h. After that, normal saline was infused into the duodenum at 2.8 mL/h for the remainder of the experiment to hydrate the animals.
Preparation of cocoa butter formulation for rectal dosing: Briefly, 100 mg of the cocoa butter was weighed into a homogenizer glass tube and melted at 32 degrees Celsius. 3 mg of idronoxil was then added and the formulation mixed manually with the homogenizer.
Dose administration: The warmed/melted cocoa butter formulations were dosed into the rectum via placing the tip of a 3 cm plastic mouse oral gavage device attached to a 1 ml plastic syringe exactly 1 cm into the rectum. The formulation was dosed over 15 sec. After that, normal saline was infused into the duodenum at 2.8 mL/h for the remainder of the experiment to hydrate the animals.
Male Sprague-Dawley rats (n=3 per group, body weight 300±40 g) were used in the study. Each animal was fasted overnight prior to surgical cannulation of the carotid artery and duodenum.
The rats were anaesthetized (using isoflurane anesthesia), placed on a heated pad at 37° C. and cannulas were inserted into the duodenum (for dosing of lipid formulation and rehydration) and carotid artery (for blood collection).
Post-surgery, rats were re-hydrated for 0.5 h via intraduodenal infusion of normal saline at 2.8 mL/h prior to dosing via intraduodenal or rectal route.
Plasma collection: Plasma samples were collected for 8 h into Eppendorf tubes containing 5 μL of 1,000 IU/mL heparin. Aliquots (20 μL) of each hourly collected samples were transferred into labelled 1.5 mL Eppendorf tubes. Aliquoted and original bulk samples were stored at −20° C. until analysis.
Sample analysis: Plasma concentrations of idronoxil were measured by the HMST-lab using a validated HPLC-MS/MS method. Briefly, LC-MS analysis was performed on a Shimadzu 8050 triple quadrupole mass spectrometer coupled with a Shimadzu Nexera X2 UHPLC. MS analysis was conducted in positive mode electrospray ionisation and quantitation of the analytes performed in MRM mode. The column employed was a Phenomenex Kinetex EVO C18 column (2.6 μm particle size, 50×2.1 mm i.d.) equipped with a Phenomenex Security Guard column with C18 packing material. The column was maintained at 40-C. The mobile phase consisted of 0.2% formic acid in water (Mobile Phase A) and 100% acetonitrile (Mobile Phase B). Separations were conducted using a flow rate of 0.4 mL/min and an injection volume of 6 μL. Samples were controlled in the autosampler at a temperature of 10° C.
Non-compartmental pharmacokinetic (PK) analysis: The elimination rate constant (slope), half-life (i.e., 0.693/k), and mean residence time (MRT) were calculated using excel. The area under the plasma-concentration time curves from time zero to 8 h (AUC0-8 h) were calculated using the trapezoid rule to the last measured time point.

[1] = Intestinal administration of idronoxil, lipid emulsion, 1 hrs
[2] = Intestinal administration of idronoxil, lipid emulsion, 2 hrs
[3] = Intestinal administration of idronoxil, lipid emulsion, 3 hrs
[4] = Intestinal administration of idronoxil, lipid emulsion, 4 hrs
[5] = Intestinal administration of idronoxil, lipid emulsion, 5 hrs
[6] = Intestinal administration of idronoxil, lipid emulsion, 6 hrs
[7] = Intestinal administration of idronoxil, lipid emulsion, 7 hrs
[8] = Intestinal administration of idronoxil, lipid emulsion, 8 hrs
[9] = Rectal administration of idronoxil, cocoa butter, 1 hrs
[10] = Rectal administration of idronoxil, cocoa butter, 2 hrs
[11] = Rectal administration of idronoxil, cocoa butter, 3 hrs
[12] = Rectal administration of idronoxil, cocoa butter, 4 hrs
[13] = Rectal administration of idronoxil, cocoa butter, 5 hrs
[14] = Rectal administration of idronoxil, cocoa butter, 6 hrs
[15] = Rectal administration of idronoxil, cocoa butter, 7 hrs
[16] = Rectal administration of idronoxil, cocoa butter, 8 hrs
[17] = intestinally-dosed rats compared with rectally-dosed rats
[18] = oral delivery (intestinal delivery model)
[19] = other: intraduodenal infusion, Intestinal delivery (intraduodenal infusion), lipid emulsion, read-out: Idronoxil Plasma Concentration Mean
[20] = other: intraduodenal infusion, Intestinal delivery (intraduodenal infusion), lipid emulsion, read-out: Idronoxil Plasma Concentration Rat 2
[21] = other: intraduodenal infusion, Intestinal delivery (intraduodenal infusion), lipid emulsion, read-out: Idronoxil Plasma Concentration Rat 1
[22] = other: intraduodenal infusion, Intestinal delivery (intraduodenal infusion), lipid emulsion, read-out: Idronoxil Plasma Concentration Rat 3
[23] = other: rectal, Rectal delivery, cocoa butter, read-out: Idronoxil Plasma Concentration Mean
[24] = other: rectal, Rectal delivery, cocoa butter, read-out: Idronoxil Plasma Concentration Rat 1
[25] = other: rectal, Rectal delivery, cocoa butter, read-out: Idronoxil Plasma Concentration Rat 2
[26] = other: rectal, Rectal delivery, cocoa butter, read-out: Idronoxil Plasma Concentration Rat 3

## Oc1ccc(C2=Cc3ccc(O)cc3OC2)cc1 [Idronoxil, 2H-1-Benzopyran-7-0,1,3-(4-hydroxyphenyl)]
Intestinal administration of idronoxil, lipid emulsion, 0 hrs
  Peak Area in rat plasma, Rat 2: 62,126
[1]
  Peak Area in rat plasma, Rat 1: 236,465
  Peak Area in rat plasma, Rat 2: 184,114
  Peak Area in rat plasma, Rat 3: 222,037
[2]
  Peak Area in rat plasma, Rat 1: 335,894
  Peak Area in rat plasma, Rat 2: 238,289
  Peak Area in rat plasma, Rat 3: 237,900
[3]
  Peak Area in rat plasma, Rat 1: 34,094
  Peak Area in rat plasma, Rat 2: 71,267
  Peak Area in rat plasma, Rat 3: 32,152
[4]
  Peak Area in rat plasma, Rat 1: 25,198
  Peak Area in rat plasma, Rat 2: 14,571
  Peak Area in rat plasma, Rat 3: 13,053
[5]
  Peak Area in rat plasma, Rat 1: 26,342
  Peak Area in rat plasma, Rat 2: 10,183
  Peak Area in rat plasma, Rat 3: 13,297
[6]
  Peak Area in rat plasma, Rat 1: 6,108
  Peak Area in rat plasma, Rat 2: 8,531
  Peak Area in rat plasma, Rat 3: 17,321
[7]
  Peak Area in rat plasma, Rat 1: 8,023
  Peak Area in rat plasma, Rat 2: 14,276
  Peak Area in rat plasma, Rat 3: 8,371
[8]
  Peak Area in rat plasma, Rat 1: 13,012
  Peak Area in rat plasma, Rat 2: 9,110
  Peak Area in rat plasma, Rat 3: 8,020
[9]
  Peak Area in rat plasma, Rat 1: 57,590
  Peak Area in rat plasma, Rat 2: 213,825
  Peak Area in rat plasma, Rat 3: 46,167
[10]
  Peak Area in rat plasma, Rat 1: 37,493
  Peak Area in rat plasma, Rat 2: 179,554
  Peak Area in rat plasma, Rat 3: 50,847
[11]
  Peak Area in rat plasma, Rat 1: 37,603
  Peak Area in rat plasma, Rat 2: 152,537
  Peak Area in rat plasma, Rat 3: 45,812
[12]
  Peak Area in rat plasma, Rat 1: 34,050
  Peak Area in rat plasma, Rat 2: 117,814
  Peak Area in rat plasma, Rat 3: 49,738
[13]
  Peak Area in rat plasma, Rat 1: 61,323
  Peak Area in rat plasma, Rat 2: 153,360
  Peak Area in rat plasma, Rat 3: 75,786
[14]
  Peak Area in rat plasma, Rat 1: 41,246
  Peak Area in rat plasma, Rat 2: 114,191
  Peak Area in rat plasma, Rat 3: 42,370
[15]
  Peak Area in rat plasma, Rat 1: 46,844
  Peak Area in rat plasma, Rat 2: 100,506
  Peak Area in rat plasma, Rat 3: 25,104
[16]
  Peak Area in rat plasma, Rat 1: 14,934
  Peak Area in rat plasma, Rat 2: 80,236
  Peak Area in rat plasma, Rat 3: 40,752
At 3 to 4 hours after administration
  amount of idronoxil observed in plasma, rectal relative to oral administration: 3 to 4 times
Idronoxil dosed orally (intestinal delivery model)
  time for which blood levels >20 ng/mL were achieved: about 3 hours
intestinally-dosed rats
  time from administration by which the bulk of the total exposure is completed: about 3 hours
[17]
  maximum concentration of free idronoxil: significantly greater
  proportion of drug metabolized by Phase 2 metabolism: considerably greater
[18]
  half-life: ~45 min
  time at which drug levels are sub-therapeutic: < 4 h
  time within which drug levels substantially fall: 2 to 3 h
Rectal idronoxil
  half-life: > 480 min
[19]
  concentration at 0 h: 33.8 ng/mL
  concentration at 1 h: 118 ng/mL
  concentration at 2 h: 158 ng/mL
  concentration at 3 h: 24.3 ng/mL
  concentration at 4 h: 9.57 ng/mL
  concentration at 5 h: 9.27 ng/mL
  concentration at 6 h: 4.79 ng/mL
  concentration at 7 h: 5.04 ng/mL
  concentration at 8 h: 5.14 ng/mL
[20]
  concentration at 0 h: 33.8 ng/mL
  concentration at 1 h: 114 ng/mL
  concentration at 2 h: 140 ng/mL
  concentration at 3 h: 38.2 ng/mL
  concentration at 4 h: 7.03 ng/mL
  concentration at 5 h: 4.46 ng/mL
  concentration at 6 h: 3.79 ng/mL
  concentration at 7 h: 6.75 ng/mL
  concentration at 8 h: 4.23 ng/mL
[21]
  concentration at 1 h: 114 ng/mL
  concentration at 2 h: 200 ng/mL
  concentration at 3 h: 17.8 ng/mL
  concentration at 4 h: 16.1 ng/mL
  concentration at 5 h: 17.4 ng/mL
  concentration at 6 h: 2.86 ng/mL
  concentration at 7 h: 4.68 ng/mL
  concentration at 8 h: 7.83 ng/mL
[22]
  concentration at 1 h: 128 ng/mL
  concentration at 2 h: 136 ng/mL
  concentration at 3 h: 16.8 ng/mL
  concentration at 4 h: 5.62 ng/mL
  concentration at 5 h: 6 ng/mL
  concentration at 6 h: 7.72 ng/mL
  concentration at 7 h: 3.7 ng/mL
  concentration at 8 h: 3.37 ng/mL
[23]
  concentration at 0 h: 0 ng/mL
  concentration at 1 h: 49.4 ng/mL
  concentration at 2 h: 42.9 ng/mL
  concentration at 3 h: 37.3 ng/mL
  concentration at 4 h: 30.1 ng/mL
  concentration at 5 h: 46.3 ng/mL
  concentration at 6 h: 30.2 ng/mL
  concentration at 7 h: 25 ng/mL
  concentration at 8 h: 18.4 ng/mL
[24]
  concentration at 1 h: 26.7 ng/mL
  concentration at 2 h: 15.9 ng/mL
  concentration at 3 h: 15.9 ng/mL
  concentration at 4 h: 14.4 ng/mL
  concentration at 5 h: 27.9 ng/mL
  concentration at 6 h: 17.8 ng/mL
  concentration at 7 h: 20.6 ng/mL
  concentration at 8 h: 5.74 ng/mL
[25]
  concentration at 1 h: 96.5 ng/mL
  concentration at 2 h: 88.1 ng/mL
  concentration at 3 h: 74.2 ng/mL
  concentration at 4 h: 53.7 ng/mL
  concentration at 5 h: 71.4 ng/mL
  concentration at 6 h: 51.3 ng/mL
  concentration at 7 h: 43 ng/mL
  concentration at 8 h: 33.4 ng/mL
[26]
  concentration at 1 h: 24.9 ng/mL
  concentration at 2 h: 24.7 ng/mL
  concentration at 3 h: 21.8 ng/mL
  concentration at 4 h: 22.3 ng/mL
  concentration at 5 h: 39.5 ng/mL
  concentration at 6 h: 21.6 ng/mL
  concentration at 7 h: 11.4 ng/mL
  concentration at 8 h: 16.1 ng/mL
rats, 10 mg/kg body weight, single rectal administration, up to 8 hours
  plasma concentration: 35 to 40 ng/mL
Rectal delivery
  time for which therapeutic levels of free idronoxil were maintained in the blood: at least 8 hours
Rectal vs oral
  half-life, rectal relative to oral idronoxil: at least 5 times
rectally-dosed rats
  time for which idronoxil levels remain almost constant (steady-state levels) post administration: at least 8 hours
